{
  "source": "paper PMC9504583",
  "about": "“Stability Study, Quantification Method and Pharmacokinetics Investigation of a Coumarin–Monoterpene Conjugate Possessing Antiviral Properties against Respiratory Syncytial Virus” (Pharmaceuticals, 2022)",
  "key": {"[1]": {"parameters": "method as in PMID 27420975", "details": "rats, cited from earlier work"}, "[2]": {"assay": "stability study in whole mice blood in vitro", "type": "in vitro ADME", "details": "spike 1000 ng/mL, aliquots 5-240 min, peak area", "procedure": "To study the stability of K-142 in whole blood of mice, a spike containing the substance at the concentration of 1000 ng/mL was prepared. After preparation, the spike was placed on a shaker and shaken throughout the experiment. Aliquots of the spike with a volume of 50 μL were taken after 5, 10, 15, 30, 60, 120, 180 and 240 min, after which the sample was prepared and analyzed, and K-142 peak area in obtained chromatograms was measured.\nIt can be seen from the chart (Figure S1) showing the K-142 peak area in the chromatogram that no decrease in its concentration happens for at least 4 h."}, "RSV serotype A": {"test_system": "RSV serotype A", "parameters": "method as in PMID 34946573", "details": "cited from earlier work"}, "[3]": {"assay": "pharmacokinetics study of K-142 after oral administration to mice", "type": "in vivo, CD1 mice", "details": "20 mg/kg", "procedure": "The method has been applied to a pharmacokinetic study of the agent K-142 in mice (n = 8). The substance was administered to the animals orally at a dose of 20 mg/kg. After drug administration, blood samples were taken from the tail vein and treated with the precipitating solution, and the samples were analyzed.\nThe maximum values of concentrations observed for animals vary in the range from 15 to 90 ng/mL, and the average value is about 46 ng/mL. Thereafter, the content of the substance in the blood gradually decreases, and almost complete excretion is achieved in about 2 h. As the average concentration of K-142 in mice blood was c.a. 3.1 ng/mL, which is below LLOQ, this time point was not included in calculation of pharmacokinetics parameters and is shown in Figure 5 just for information. Due to the same reason, the data on the concentrations of the agent K-142 in animal #8 were also not taken into account for the calculation. The averaged values of pharmacokinetic parameters were calculated for a period of time from 0 to 60 min and are given in Table 1.\nExperiments were performed on adult CD1 mice (n = 8) weighing 30–40 g. Animals were obtained from the animal facility of the Institute of Cytology and Genetics SB RAS and kept under standard conditions with free access to food and water. All experiments were performed in accordance with the “European Convention for the Protection of Vertebrate Animals Used for Experimental and other Scientific Purposes”, 1986.\nPharmacokinetics of the agent K-142 was studied at a dose of 20 mg/kg after its oral administration. To prepare the dosage form, a weight of the substance was mixed with c.a. 20 µL of Tween-80 followed by the dilution of the sample with physiological saline to a volume of 0.2 mL per 10 g of mouse bodyweight. Blood aliquots (10 µL) were taken in duplicate from the animal tail vein 10, 20, 30, 45 min, 1, 1.5, 2, 2.5 3, 4, 5 and 6 h after substance administration. The samples were mixed with the precipitation solution and processed according to the protocol and analyzed. Pharmacokinetic parameters were calculated using PKSolver and are presented as mean ± standard error of mean (SEM)."}, "RSV serotype B": {"test_system": "RSV serotype B", "parameters": "method as in PMID 34946573", "details": "cited from earlier work"}, "[4]": {"parameters": "method as in PMID 31847686", "details": "ICR mice, oral, cited from earlier work"}, "[5]": {"details": "CD1, mouse, whole blood, mean ± SEM, calculated 0-60 min, animal #8 excluded"}},
  "note": "Read-outs that look alike come from different tables or passages of the source.",
  "data": [
    {"compound": "CC(C)=CCC/C(C)=C/COc1ccc2ccc(=O)oc2c1", "note": "[auraptene]", "values": [
      {"measurement": "Tmax", "setting": "[1]; oral, 100 mg/kg, plasma", "value": "108.0 ± 25.3", "unit": "min"},
      {"measurement": "maximum concentration in blood plasma", "setting": "[1]; oral, 100 mg/kg, plasma", "value": "1719 ± 384.3", "unit": "ng/mL"},
      {"measurement": "bioavailability", "setting": "[1]", "value": 8.5, "unit": "%"}
    ]},
    {"compound": "CC1(C)C2CC=C(COc3ccc4c5c(c(=O)oc4c3)CCCC5)C1C2", "note": "(centres unmarked) [K-142]", "values": [
      {"measurement": "time with no decrease in concentration (stability)", "setting": "[2]", "value": "at least 4 h"},
      {"measurement": "IC50", "setting": "RSV serotype A; RSV serotype A", "value": 5, "unit": "µM"},
      {"measurement": "selectivity index (SI)", "setting": "RSV serotype A; RSV, serotype not specified for SI", "value": 77},
      {"measurement": "CL", "setting": "[3]; mean ± SEM, calculated 0-60 min, animal #8 excluded", "value": "(1.3 ± 0.2) × 10^−2 (mg/kg)/(ng/mL)/min"},
      {"measurement": "time at which maximum concentration is reached", "setting": "[3]; whole blood", "value": 10, "unit": "min"},
      {"measurement": "time to almost complete excretion", "setting": "[3]; whole blood", "value": "about 2 h"},
      {"measurement": "concentration at 2 h", "setting": "[3]; CD1, mouse, whole blood, below LLOQ (5 ng/mL), not used for PK calculation, read-out: average concentration in mice blood at about 2 h", "value": "~3.1", "unit": "ng/mL"},
      {"measurement": "AUC(0-inf)", "setting": "[3]; [5]", "value": 26.2, "unit": "ng·h/mL"},
      {"measurement": "Cmax", "setting": "[3]; [5]", "value": "63.4 ± 19.1", "unit": "ng/mL"},
      {"measurement": "half-life", "setting": "[3]; [5]", "value": "27.7 ± 5.4", "unit": "min"},
      {"measurement": "MRT inf", "setting": "[3]; CD1, mouse, whole blood, mean ± SEM, calculated 0-60 min, animal #8 excluded, read-out: MRT0–∞ (converted)", "value": 40.5, "unit": "min"},
      {"measurement": "IC50", "setting": "RSV serotype B", "value": 5, "unit": "µM"}
    ]},
    {"compound": "CC(C)=CCc1c(O)ccc2ccc(=O)oc12", "note": "[osthenol]", "values": [
      {"measurement": "Cmax", "setting": "[4]; 5 mg/kg", "value": "66.1 ± 3.2", "unit": "ng/mL"},
      {"measurement": "Tmax", "setting": "[4]; 5 mg/kg", "value": "36.3 ± 13.8", "unit": "min"},
      {"measurement": "Cmax", "setting": "[4]; 20 mg/kg", "value": "56.0 ± 29.1", "unit": "ng/mL"},
      {"measurement": "Tmax", "setting": "[4]; 20 mg/kg", "value": "6.3 ± 1.3", "unit": "min"},
      {"measurement": "bioavailability (in words)", "setting": "[4]; 5 and 20 mg/kg", "value": "very low bioavailability"}
    ]}
  ]
}
